# According to US20110224232A1 (Board of Regents, The University of Texas System, priority 2008, published 2011):
# “Also recorded” adds a separate entry of the source. Like-named read-outs stand apart in the source and are kept apart here.
# Tests used:
# [1] = tested on: Aspergillus fumigatus clinical isolate 293 (AF 293); experiment: Survival of A. fumigatus-infected immunosuppressed mice (Kaplan-Meier); format: in vivo; conditions: for Percent Survival / Median Survival: A. fumigatus-infected female ICR mice, VOR inhalation BID 30-40 mg/kg, AmB intraperitoneal QD 1 mg/kg; for Percent Survival: to Day +12
# Excerpt: Conidia were harvested from Aspergillus fumigatus clinical isolate 293 (AF 293) cultures grown on potato dextrose agar (Hardy Diagnostics, Santa Maria, Calif.) by washing and scraping agar surfaces with 0.1% Tween 80 in sterile physiological saline and filtering through sterile glass wool. Conidia were re-suspended to achieve a final inoculum of ˜1×10^9 conidia/mL, as confirmed by hemocytometer counts and serial plating.
# Mice were rendered immunosuppressed by intraperitoneal cyclophosphamide (250 mg/kg) and subcutaneous cortisone acetate (250 mg/kg) two days prior to inoculation (Day −2). Both cyclophosphamide (200 mg/kg intraperitoneal) and cortisone acetate (250 mg/kg subcutaneously) were re-administered on Day +3 following inoculation. Mice also received prophylactic antibiotic therapy of ceftazidime 50 mg/kg administered sub-cutaneously on Day −2 through Day +7.
# To simulate pulmonary pathogenesis, mice were placed inside an acrylic chamber, and A. fumigatus conidia were introduced by aerosolizing the conidial suspension with a small particle nebulizer (Hudson Micro Mist, Hudson RCI, Temecula, Calif.) driven by compressed air. A standard exposure time of 1 hour was used to allow for complete aerosolization of the conidial suspension. Starting inocula were assessed by colony forming unit (CFU) enumeration from mice one hour post-inoculation.
# The inhaled control group received 20 minute nebulizations of 100 mg/mL CAPTISOL® solutions BID beginning on Day −2 and continuing through Day +7. The intraperitoneal AmB group received 1 mg/kg Amphotericin B deoxycholate (Apothecon, Princeton, N.J.) by intraperitoneal injection (IP) once daily (QD) on Day +1 and continuing through Day +7 (FIG. 2).
# Statistical analyses were conducted as follows. Survival was plotted by Kaplan-Meier analysis, and differences in median survival and percent survival between prophylaxis groups were analyzed by the log-rank test and chi-square test, respectively, using Prism version 4 software (GraphPad, San Diego, Calif.). […] A p-value of ≦0.05 was considered statistically significant for all comparisons.
# [2] = Single-dose pharmacokinetics of inhaled voriconazole in mice; conditions: for AUC(0-t): AUC (0-6 hr) Plasma
# Experimental: Initially, a single dose PK profile was performed on large mice with a 5 L/min flow rate through the dosing apparatus (see Table 2).
# A subsequent PK study was then performed on smaller mice due to the mouse size constraints of the murine model of infection at a lower air flow rate of 1 L/min. Male ICR mice were exposed to a 20 minute nebulization period. […] Plasma was separated from whole blood collected to determine drug concentration (adapted from Pascual et al., Antimicrobial Agents and Chemotherapy, 2007, 51:1). Lungs were harvested and homogenized to determine drug concentration (adapted from Lutsar et al., Clinical Infectious Disease, 2003, 37:5).
# Mice were dosed using a nose-only dosing apparatus as illustrated in FIGS. 1A-1B. VFEND® IV was reconstituted, diluted, and aerosolized as described previously. The airflow through the dosing apparatus was varied from 1-5 L/min (see Table 2). Sufficient solution was added to the medication reservoir to have residual volume remaining after 20 minutes. The nose-only dosing apparatus and nebulizer were disassembled between each dose, cleaned, dried, and reassembled.
# Pharmacokinetic (PK) profiles were determined for high flow rate and low flow rate mice groups following a single 20 minute nebulization. Mice were ordered with masses of 32 g (high flow rate mice) and 20 g (low flow rate mice). Two or more mice were sacrificed by carbon dioxide narcosis at each time point (high flow rate mice—5, 10, 20, 30, 60, 90, 150, 240, 360, 720, and 1440 minutes or low flow rate mice—10, 30, 60, 240, 360, and 480 minutes). Whole blood was collected by cardiac puncture, stored in heparinized vials, and centrifuged to obtain plasma. Surgery was also performed on each mouse to extract the whole lungs which were then homogenized in 1 mL of normal saline. […] The trapezoidal rule was used to estimate the area under the curve (AUC) for each concentration versus time profile.
# Briefly, sterile water for injection (SWFI) was added to lung tissue and homogenized using a rotor and stator high shear homogenizer. Proteins and other cellular components were precipitated following addition of 0.2M borate buffer (pH 9.0), ethyl acetate, and centrifugation. Supernatant was then extracted three times and liquid was evaporated under a gentle stream of nitrogen.
# For lung tissue, SWFI was added to lung tissue and homogenized using a rotor and stator high shear homogenizer. […] Supernatant was then extracted three times and liquid was evaporated under a gentle stream of nitrogen.
# Each sample was analyzed using a Waters Breeze liquid chromatograph (Waters Corporation, Milford Mass.) equipped with a heated (35° C.) JUPITER® C18 (150 mm×4.6 mm, 5 micrometer) with a Universal security guard (Widepore C18) guard column (Phenomenex, Torrance, Calif.). The sample volume was 50 microliter with a UV detection wavelength of 254 nm. The mobile phase consisted of a 50:50 mixture of 0.01 M sodium acetate buffer and methanol at 1 mL/min.
# Male ICR mice were dosed using a nose-only dosing apparatus as illustrated in FIGS. 1A and 1B. The airflow through the dosing apparatus was varied from 1-5 L/min. VFEND® IV was reconstituted, diluted, and sufficient solution was added to the medication reservoir to have residual volume remaining after 20 minutes. The nose-only dosing apparatus and nebulizer were disassembled between each dose, cleaned, dried, and reassembled.
# Single-dose pharmacokinetic profiles were determined in two groups of mice: a high flow-rate group (5 L/min air flow, 32 g average mass) and low flow-rate group (1 L/min, 20 g average mass). Two or more mice were sacrificed by carbon dioxide narcosis at each time point (high flow-rate: 5, 10, 20, 30, 60, 90, 150, 240, 360, 720, and 1440 minutes or low flow-rate mice: 10, 30, 60, 240, 360, and 480 minutes). Whole blood was collected by cardiac puncture into heparinized vials and centrifuged to obtain plasma.
# [3] = Aqueous and phase solubility of voriconazole with SAE-CD; format: physicochemical
# [4] = single dose of IV or oral voriconazole; cited from earlier work
# [5] = tested on: Aspergillus fumigatus; conditions: cited from earlier work
# [6] = tested on: Aspergillus fumigatus; experiment: Pulmonary fungal burden by colony forming units in infected mice; format: in vivo
# Experimental: Mice were monitored for an additional 5 days following discontinuation of treatment. Animals that appeared moribund prior to the end of the study were euthanized by halothane and death was recorded as occurring the next day. 12 mice were randomly selected from each group and euthanized on Day +8 for fungal burden analysis while any remaining mice were euthanized on Day +12. 2 additional mice were randomly selected from each group and euthanized on Day +8 and Day +12 for histological analysis
# Lungs were homogenized in sterile saline (total volume 2 mL) supplemented with gentamicin and chloramphenicol using a tissue homogenizer (Polytron Dispensing and Mixing Technology PT 2100, Kinematica, Cincinnati, Ohio). Serial dilutions were prepared in sterile saline and plated in duplicate onto potato dextrose agar. Following 24 hours of incubation at 37° C., colonies were enumerated and colony forming units (CFU) per gram of lung tissue for each animal were calculated.
# Statistical analyses were conducted as follows. Survival was plotted by Kaplan-Meier analysis, and differences in median survival and percent survival between prophylaxis groups were analyzed by the log-rank test and chi-square test, respectively, using Prism version 4 software (GraphPad, San Diego, Calif.). Differences in fungal burden endpoints (CFU/g and CE) were assessed for significance by analysis of variance with Tukey's post-test for multiple comparisons. A p-value of ≦0.05 was considered statistically significant for all comparisons.
# [7] = tested on: A. fumigatus; conditions: cited from earlier work
# [8] = tested on: A. fumigatus; experiment: Lung histopathology, pulmonary lesion counts in A. fumigatus-infected mice; format: in vivo, Aspergillus fumigatus
# Experimental: Histopathological changes in lung tissue were evaluated and compared for four mice in each of the inhaled voriconazole, inhaled control, and intraperitoneal AmB groups. The inhaled control was aerosolized CAPTISOL® at a concentration of 100 mg/mL over 20 minutes. On day 8 post inoculation, animals were euthanized using halothane and 10% volume/volume formaldehyde was instilled into the lungs via the trachea. Lungs were then harvested and placed into 10% volume/volume formaldehyde. Tissue was fixed in formaldehyde for an adequate period of time followed by processing and embedding into paraffin wax. Coronal sections of the entire lung were obtained at a thickness of 4-6 μm and mounted on slides. Sections were stained with hematoxylin and eosin and viewed by light microscopy with a Zeiss AxioVision Imager at 10× magnification. Two investigators were blinded and independently evaluated each lung section. The extent of lung damage caused by invasive hyphae was recorded and quantified by counting and normalizing the number of gross lesions.
# Normalization of the histopathology results was achieved by using the number of lung pieces (sections) on the slide as a denominator. The total number of lesions on the slide were counted and then divided by the number of pieces of tissue on that slide. This was done because the number of pieces of tissue per slide (again, all from the same cut of lung from the same animal) ranged from 4 to 9. For example, the normalized number of lesions would be 0.4 if 2 lesions were observed on a slide with 5 lung pieces. Similarly, the normalized value would be 0.14 if 1 lesion was observed on a slide with 7 lung pieces.
# [9] = Small Mice (low flow rate, 1 L/min), single dose
# [10] = normalized lesions, listed as VRC
structure (smiles),measurement,setting,value
"CC(c1ncncc1F)C(O)(Cn1cncn1)c1ccc(F)cc1F (stereo not shown) [Voriconazole, 2-(2,4-difluorophenyl)-3-(5-fluoropyrimidin-4-yl)-1-(1H-1,2,4-triazol-1-yl)butan-2-ol]",Percent Survival,[1],66.7%
same,Percent Survival,[1]; listed as voriconazole,Approximately 67%
same,Median Survival,[1],>12 days
same,Median Survival,[1]; listed as voriconazole,over 12 days
same,difference in survival versus negative control (inhaled Captisol) and positive control (intraperitoneal Amphotericin B),[1]; Kaplan-Meier survival curves,statistically significant (p<0.05) difference in survival
same,Cmax Lung,"[2]; Large Mice (high flow rate, 5 L/min), single dose",1.62 microgram/g
same,AUC (0-6 hr) Lung,[2]; [9],2408.0 microgram × min/g
same,Cmax Lung,[2]; [9],11.02 microgram/g
same,Kp,"[2]; male, ICR, mouse, in vivo, inhaled or intranasal",1.4 to 1.6
same,Tmax,"[2]; male, ICR, mouse, lung, inhaled or intranasal, 6.09 microgram/mL, Tmax Lung, Small Mice (low flow rate, 1 L/min), single dose, 20 minute nebulization",≤ 30 min
same,Tmax,"[2]; male, ICR, mouse, lung, inhaled or intranasal, Lung Tmax, summary table",10 to 30 min
same,Tmax,"[2]; male, ICR, mouse, lung, inhaled or intranasal, Tmax Lung, Large Mice (high flow rate, 5 L/min), single dose, 20 minute nebulization",10 min
same,Tmax,"[2]; male, ICR, mouse, lung, inhaled or intranasal, Tmax Lung, Small Mice (low flow rate, 1 L/min), single dose, 20 minute nebulization",30 min
same,Tmax,"[2]; male, ICR, mouse, plasma (heading says blood), inhaled or intranasal, Blood Tmax, summary table",20 to 30 min
same,Cmax,"[2]; male, ICR, mouse, plasma, inhaled or intranasal, 6.09 microgram/mL, Cmax Plasma, Small Mice (low flow rate, 1 L/min), single dose",7090 ng/mL
same,Tmax,"[2]; male, ICR, mouse, plasma, inhaled or intranasal, 6.09 microgram/mL, Tmax Plasma, Small Mice (low flow rate, 1 L/min), single dose, 20 minute nebulization",≤ 30 min
same,AUC(0-t),"[2]; male, ICR, mouse, plasma, inhaled or intranasal, Large Mice (high flow rate, 5 L/min), single dose",2270 ng·h/mL
same,AUC(0-t),"[2]; male, ICR, mouse, plasma, inhaled or intranasal, Small Mice (low flow rate, 1 L/min), single dose",25800 ng·h/mL
same,Cmax,"[2]; male, ICR, mouse, plasma, inhaled or intranasal, Blood Cmax, single-dose",7090 ng/mL
same,Cmax,"[2]; male, ICR, mouse, plasma, inhaled or intranasal, Cmax Plasma, Large Mice (high flow rate, 5 L/min), single dose",1180 ng/mL
same,Tmax,"[2]; male, ICR, mouse, plasma, inhaled or intranasal, Tmax Plasma, Large Mice (high flow rate, 5 L/min), single dose, 20 minute nebulization",20 min
same,Tmax,"[2]; male, ICR, mouse, plasma, inhaled or intranasal, Tmax Plasma, Small Mice (low flow rate, 1 L/min), single dose, 20 minute nebulization",30 min
same,Lung Cmax,"[2]; single-dose, mouse",11.02 µg/mL
same,increase in total drug exposure as measured by AUC0-6 for lung tissue and plasma,[2]; slower flow rate (small mice) versus high flow rate (large mice),> 10 fold
same,solubility,"[3]; water with SAE-CD, aqueous with cosolvent or surfactant or cyclodextrin, thermodynamic from solid, Voriconazole (mg/ml) at saturated solubility, SAE-CD 43.26 mg/ml (r4)",3.34 mg/mL
same,solubility,"[3]; water with SAE-CD, aqueous with cosolvent or surfactant or cyclodextrin, thermodynamic from solid, Voriconazole (mg/ml) at saturated solubility, SAE-CD 43.26 mg/ml as printed (r8)",35.1 mg/mL
same,solubility,"[3]; water with SAE-CD, aqueous with cosolvent or surfactant or cyclodextrin, thermodynamic from solid, Voriconazole (mg/ml) at saturated solubility, SAE-CD 108.15 mg/ml",8.39 mg/mL
same,solubility,"[3]; water with SAE-CD, aqueous with cosolvent or surfactant or cyclodextrin, thermodynamic from solid, Voriconazole (mg/ml) at saturated solubility, SAE-CD 216.3 mg/ml",17.3 mg/mL
same,solubility,"[3]; water with SAE-CD, aqueous with cosolvent or surfactant or cyclodextrin, thermodynamic from solid, Voriconazole (mg/ml) at saturated solubility, SAE-CD 324.45 mg/ml",26.5 mg/mL
same,solubility,"[3]; water, room temperature, absence of water soluble cyclodextrin derivative, read-out: aqueous solubility",0.68 to 0.69 mg/mL
same,typical Tmax in human plasma,[4],50 to 66 min
same,MIC50,[5]; A. fumigatus clinical test isolates,0.25 µg/mL
same,minimum inhibitory concentrations for 90% of isolates (MIC90),[5]; Aspergillus fumigatus,0.5-1 microgram/mL
same,MIC90,[5]; red line in FIG. 10,0.52 µg/mL
same,"A - Day 8 Fungal Burden Determined by CFU, Mean",[6]; Day +8,4.26 log10 CFU
same,"A - Day 8 Fungal Burden Determined by CFU, Median",[6]; Day +8,4.21 log10 CFU
same,"A - Day 8 Fungal Burden Determined by CFU, Range",[6]; Day +8,(3.62-4.68) log10 CFU
same,"B - Fungal Burden Determined by CFU for All Mice, Mean","[6]; all samples, day 8 and day 12",3.88 log10 CFU
same,"B - Fungal Burden Determined by CFU for All Mice, Median","[6]; all samples, day 8 and day 12",4.14 log10 CFU
same,"B - Fungal Burden Determined by CFU for All Mice, Range","[6]; all samples, day 8 and day 12",(2.60-4.68) log10 CFU
same,reduction in fungal burden between the groups (CFUs per gram of lung mass and CEs by qPCR),[6]; in vivo,no significant reduction in fungal burden
same,fungicidal activity at a low concentration,[7],0.5 microgram/mL
same,EC50 value (concentration resulting in 50% inhibition of growth compared to control),[7]; non-linear regression analysis,0.18 micrograms/mL
same,lung histopathology findings (in words),"[8]; A. fumigatus-infected mice, aerosolized voriconazole, intraperitoneal amphotericin B",fewer signs of invasive disease and markedly improved histological findings; also recorded: fewer signs of invasive disease and markedly improved histological results; also recorded: Invasive hyphae and tissue destruction characteristic of invasive pulmonary aspergillosis were not observed
same,"pulmonary lesions normalized for the number of lung tissue pieces per slide, 25th Percentile",[8]; normalized lesions,0.19
same,"pulmonary lesions normalized for the number of lung tissue pieces per slide, 75th Percentile",[8]; normalized lesions,0.51
same,"pulmonary lesions normalized for the number of lung tissue pieces per slide, Maximum",[8]; normalized lesions,0.55
same,"pulmonary lesions normalized for the number of lung tissue pieces per slide, Mean",[8]; normalized lesions,0.4
same,"pulmonary lesions normalized for the number of lung tissue pieces per slide, Median",[8]; normalized lesions,0.37
same,"pulmonary lesions normalized for the number of lung tissue pieces per slide, Minimum",[8]; normalized lesions,0.14
same,"pulmonary lesions normalized for the number of lung tissue pieces per slide, 25th Percentile",[8]; [10],0.2
same,"pulmonary lesions normalized for the number of lung tissue pieces per slide, 75th Percentile",[8]; [10],0.5
same,"pulmonary lesions normalized for the number of lung tissue pieces per slide, Maximum",[8]; [10],0.6
same,"pulmonary lesions normalized for the number of lung tissue pieces per slide, Median",[8]; [10],0.4
same,"pulmonary lesions normalized for the number of lung tissue pieces per slide, Minimum",[8]; [10],0.1
same,"pulmonary lesions in all available histological samples, 25th Percentile",[8]; number of lesions,1.3
same,"pulmonary lesions in all available histological samples, 75th Percentile",[8]; number of lesions,4.3
same,"pulmonary lesions in all available histological samples, Maximum",[8]; number of lesions,5.0
same,"pulmonary lesions in all available histological samples, Mean",[8]; number of lesions,2.5
same,"pulmonary lesions in all available histological samples, Median",[8]; number of lesions,2.0
same,"pulmonary lesions in all available histological samples, Minimum",[8]; number of lesions,1.0
